Source: patent publication US20240246934A1, “QUINAZOLINE-BASED COMPOUND, COMPOSITION, AND APPLICATION OF QUINAZOLINE-BASED COMPOUND” (BEIJING SCITECH-MQ PHARMACEUTICALS LIMITED, priority 2021, published 2024)

Experiments:
[1] = Pharmacokinetics in SD rats, single intravenous injection and oral administration; type: in vivo, SD rat
Protocol: In this assay, the pharmacokinetic characteristics of the compounds of the present application were assayed after administration of some of the compounds of the present application to SD rats by single oral administration and intravenous injection. 1. […] The mixture was stirred, vortexed and/or sonicated. Once a solution was obtained, the vehicle was gradually added to a final volume to reach the target concentration. The solution was vortexed, and sonicated to obtain a homogeneous solution. The solution was filtered through a 0.22 μm PVDF membrane. 2. […] The mixture was stirred, vortexed and/or sonicated. Once a solution was obtained, the vehicle was gradually added to a final volume to reach the target concentration. The solution was vortexed, and sonicated to obtain a homogeneous solution. […] Meanwhile, the IV group was not fasted and the PO group was fasted overnight (>12 hrs) and given food 2 hrs after drug administration. All animals had free access to water. The dosing regimen and pharmacokinetic sampling regimen are given in Table 6 and Table 7 below, respectively. […] Rats were administered according to the above regimen, and blood and brain tissue samples were collected and processed at predetermined time points (collection and processing were performed according to conventional methods in the art). […] The supernatant was diluted 2-fold with ultra-pure water, and the samples were analyzed by LC/MS. Pharmacokinetic parameters was calculated using WinNonlin software. The following pharmacokinetic parameters was calculated from the plasma drug concentration-time data: CL (clearance); Vd (apparent volume of distribution); T1/2 (elimination half-life time); Cmax (peak concentration); Tmax (time to peak); AUC (area under plasma drug concentration-time curve); MRT (mean retention time); F % (bioavailability).

[2] = target: T1, HER2 kinase (Homo sapiens, UniProt P04626); experiment: HER2 kinase assay (ULight/PT66 TR-FRET); type: biochemical
T1 construct: purchased Carna Biosciences 08-016
T1 sequence (P04626 23-1255): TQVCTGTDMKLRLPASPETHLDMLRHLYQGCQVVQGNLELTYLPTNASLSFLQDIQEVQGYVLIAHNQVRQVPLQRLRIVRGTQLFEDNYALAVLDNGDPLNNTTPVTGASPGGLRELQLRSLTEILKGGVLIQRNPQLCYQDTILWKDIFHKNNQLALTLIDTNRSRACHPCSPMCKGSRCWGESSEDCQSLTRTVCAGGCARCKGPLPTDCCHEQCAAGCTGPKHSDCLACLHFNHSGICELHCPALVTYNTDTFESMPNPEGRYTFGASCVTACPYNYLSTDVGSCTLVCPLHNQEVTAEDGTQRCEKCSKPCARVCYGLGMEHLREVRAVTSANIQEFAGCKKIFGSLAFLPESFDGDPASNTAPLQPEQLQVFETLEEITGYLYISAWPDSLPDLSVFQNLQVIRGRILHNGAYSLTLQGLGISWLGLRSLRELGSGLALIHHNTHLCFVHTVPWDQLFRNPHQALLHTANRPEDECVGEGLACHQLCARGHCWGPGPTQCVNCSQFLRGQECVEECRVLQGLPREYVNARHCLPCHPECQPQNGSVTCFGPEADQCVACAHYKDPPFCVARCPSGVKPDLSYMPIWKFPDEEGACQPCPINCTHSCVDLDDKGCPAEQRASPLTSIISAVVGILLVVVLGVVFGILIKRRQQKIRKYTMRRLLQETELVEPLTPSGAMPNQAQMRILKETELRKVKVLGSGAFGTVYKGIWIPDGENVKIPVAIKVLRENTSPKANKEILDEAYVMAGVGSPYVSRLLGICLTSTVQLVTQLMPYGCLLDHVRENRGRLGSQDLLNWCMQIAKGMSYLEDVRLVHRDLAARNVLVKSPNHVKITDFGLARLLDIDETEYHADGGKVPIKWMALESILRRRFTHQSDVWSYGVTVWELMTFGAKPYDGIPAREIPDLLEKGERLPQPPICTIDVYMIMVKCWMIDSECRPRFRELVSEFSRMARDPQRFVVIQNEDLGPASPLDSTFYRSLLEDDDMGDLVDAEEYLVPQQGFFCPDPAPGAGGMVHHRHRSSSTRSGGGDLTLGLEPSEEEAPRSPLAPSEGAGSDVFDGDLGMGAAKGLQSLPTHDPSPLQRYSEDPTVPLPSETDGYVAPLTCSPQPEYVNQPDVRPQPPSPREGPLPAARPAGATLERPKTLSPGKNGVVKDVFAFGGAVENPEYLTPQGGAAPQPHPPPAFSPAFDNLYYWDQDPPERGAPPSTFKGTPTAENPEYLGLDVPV
Protocol: (§1) Preparation of compound solution: The assay compound was dissolved in DMSO to form a 10 mM stock solution. Prior to use, the compound was diluted to 0.25 mM in DMSO (100 times the final concentration of the diluent) and then subjected to a 3-fold concentration gradient dilution to obtain a total of 11 concentrations. The solution was diluted with buffer to a diluent with 4× the final concentration when the compound was added.
(§2) HER2 kinase assay: buffer was prepared, and 40 nM 4×Her2 kinase solution, 40 μM 4×ATP solution, and 400 nM 4×ULight™-labeled Ploy GT Peptide substrate solution were prepared using the buffer. After the preparation was completed, the enzyme was mixed with different concentrations of compounds pre-prepared by dilution, and the mixture was left to stand at room temperature for 5 min. Each concentration was performed in duplicate. The corresponding substrate and ATP were added and the mixture was reacted at room temperature for 120 minutes (with negative and positive controls). After completion of the reaction, PT66 detection antibody was added. The mixture was incubated at room temperature for 60 minutes, and then detected by Envision.
(§3) Compound concentrations and corresponding inhibition rates were input into GraphPad Prism for processing to calculate IC50 values.

[3] = target: EGFR^WT kinase (Homo sapiens, UniProt P00533); experiment: EGFR^WT kinase assay (ULight/PT66 TR-FRET); type: biochemical
EGFR^WT kinase, sequence (P00533 25-1210): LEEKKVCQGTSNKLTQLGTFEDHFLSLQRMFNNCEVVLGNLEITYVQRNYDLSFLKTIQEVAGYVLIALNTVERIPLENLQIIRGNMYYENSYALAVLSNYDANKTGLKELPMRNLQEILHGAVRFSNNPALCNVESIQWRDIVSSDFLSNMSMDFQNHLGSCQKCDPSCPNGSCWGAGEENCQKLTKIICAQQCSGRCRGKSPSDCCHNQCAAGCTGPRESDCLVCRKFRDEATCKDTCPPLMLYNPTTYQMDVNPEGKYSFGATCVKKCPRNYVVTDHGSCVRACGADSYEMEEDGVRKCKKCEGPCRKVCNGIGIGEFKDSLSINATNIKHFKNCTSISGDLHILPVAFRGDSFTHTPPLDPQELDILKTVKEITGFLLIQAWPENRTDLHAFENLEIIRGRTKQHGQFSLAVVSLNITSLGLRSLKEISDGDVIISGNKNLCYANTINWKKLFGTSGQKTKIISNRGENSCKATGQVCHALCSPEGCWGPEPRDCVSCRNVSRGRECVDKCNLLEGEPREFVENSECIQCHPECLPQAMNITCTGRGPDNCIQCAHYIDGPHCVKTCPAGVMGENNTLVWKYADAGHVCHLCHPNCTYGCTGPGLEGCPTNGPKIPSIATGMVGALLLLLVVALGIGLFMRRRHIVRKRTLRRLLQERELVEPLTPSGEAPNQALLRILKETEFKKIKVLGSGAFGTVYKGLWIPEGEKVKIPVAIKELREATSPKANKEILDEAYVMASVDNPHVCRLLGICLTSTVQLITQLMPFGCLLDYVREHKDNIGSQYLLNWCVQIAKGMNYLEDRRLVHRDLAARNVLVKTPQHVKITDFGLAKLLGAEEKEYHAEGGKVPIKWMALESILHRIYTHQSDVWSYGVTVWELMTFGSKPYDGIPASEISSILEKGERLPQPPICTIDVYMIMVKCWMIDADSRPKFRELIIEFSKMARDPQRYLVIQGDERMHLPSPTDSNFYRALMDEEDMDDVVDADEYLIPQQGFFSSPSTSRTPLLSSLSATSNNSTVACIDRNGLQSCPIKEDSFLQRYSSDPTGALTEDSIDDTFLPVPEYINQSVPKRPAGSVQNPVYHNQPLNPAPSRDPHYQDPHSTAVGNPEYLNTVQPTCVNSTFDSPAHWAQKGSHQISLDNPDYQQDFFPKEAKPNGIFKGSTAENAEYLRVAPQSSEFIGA
Protocol: as §1
as §2, with “EGFR^WT kinase assay:” for “HER2 kinase assay:”, “prepared, and 3.48 nM 4×EGFR” for “prepared, and 40 nM 4×Her2”, “3.48 nM 4×EGFR kinase solution,” for “40 nM 4×Her2 kinase solution,”, “kinase solution, 600 μM 4×ATP” for “kinase solution, 40 μM 4×ATP”, “nM 4×ULight™-labeled JAK-1 (Try1023) Peptide substrate” for “nM 4×ULight™-labeled Ploy GT Peptide substrate”
as §3

[4] = target: Ba/F3 HER2 A775_G776insYVMA cells (Homo sapiens, UniProt P04626, DUP772-775, cells depend on it); experiment: Inhibition of cell proliferation, CTG method, Ba/F3 HER2 A775_G776insYVMA; type: cell-based; settings: 72 hours, read-out: Ba/F3 HER2 A775-G776insYVMA IC50
Ba/F3 HER2 A775_G776insYVMA cells, sequence (P04626 with tags, fused parts or gaps DUP772-775): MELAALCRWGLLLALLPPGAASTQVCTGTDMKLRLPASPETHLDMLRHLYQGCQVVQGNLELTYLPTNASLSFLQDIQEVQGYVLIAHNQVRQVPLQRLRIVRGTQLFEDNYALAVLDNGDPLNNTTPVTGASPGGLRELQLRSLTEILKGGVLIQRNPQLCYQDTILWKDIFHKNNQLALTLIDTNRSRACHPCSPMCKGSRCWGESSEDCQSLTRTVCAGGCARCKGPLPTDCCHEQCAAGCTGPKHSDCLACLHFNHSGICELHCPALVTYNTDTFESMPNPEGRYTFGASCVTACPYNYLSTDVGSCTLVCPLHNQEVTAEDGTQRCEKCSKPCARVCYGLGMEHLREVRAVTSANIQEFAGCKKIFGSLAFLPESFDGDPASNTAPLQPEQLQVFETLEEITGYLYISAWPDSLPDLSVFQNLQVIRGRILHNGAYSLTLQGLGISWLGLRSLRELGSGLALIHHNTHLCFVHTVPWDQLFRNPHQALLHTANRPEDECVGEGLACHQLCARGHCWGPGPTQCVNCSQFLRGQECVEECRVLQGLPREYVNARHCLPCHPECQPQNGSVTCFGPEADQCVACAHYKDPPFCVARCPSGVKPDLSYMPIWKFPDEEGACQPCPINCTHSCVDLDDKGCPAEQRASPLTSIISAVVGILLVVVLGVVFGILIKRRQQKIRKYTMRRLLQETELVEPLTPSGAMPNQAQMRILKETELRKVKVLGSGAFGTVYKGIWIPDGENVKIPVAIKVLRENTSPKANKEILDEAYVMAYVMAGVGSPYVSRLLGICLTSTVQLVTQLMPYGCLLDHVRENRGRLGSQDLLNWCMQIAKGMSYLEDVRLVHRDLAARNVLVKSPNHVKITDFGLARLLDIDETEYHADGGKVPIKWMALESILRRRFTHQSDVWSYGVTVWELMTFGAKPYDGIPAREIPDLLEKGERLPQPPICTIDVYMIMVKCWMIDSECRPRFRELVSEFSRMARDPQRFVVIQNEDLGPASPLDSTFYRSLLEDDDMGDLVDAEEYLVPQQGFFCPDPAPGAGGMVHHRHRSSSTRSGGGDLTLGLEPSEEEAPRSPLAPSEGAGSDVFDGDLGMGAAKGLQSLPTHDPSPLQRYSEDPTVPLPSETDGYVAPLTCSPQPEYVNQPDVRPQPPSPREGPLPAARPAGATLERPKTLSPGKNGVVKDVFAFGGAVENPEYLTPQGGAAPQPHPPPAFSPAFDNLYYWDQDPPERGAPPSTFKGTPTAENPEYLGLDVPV
From the text: The present application examined the in vitro anti-proliferative activity of the compounds of the present disclosure against in vitro cultured BT474, NCI-N87, Ba/F3-EGFR-VIII and Ba/F3 HER2 A775_G776insYVMA and Ba/F3 EGFR D770_N771insSVD cell lines by CTG method.
Cell lines: BT474 (from the cell bank of Chinese Academy of Sciences), NCI-N87 (from ATCC), Ba/F3-EGFR-VIII, Ba/F3 HER2 A775_G776insYVMA and Ba/F3 EGFR D770_N771insSVD (all from KYinno Biotechnology (Beijing) Co., Ltd.); all of the above cells were cultured with RPMI1640 medium containing 10% fetal bovine serum, 100 U/mL penicillin, and 100 μg/mL streptomycin in the culture process.
1. The assay compound was dissolved with DMSO to form a stock solution and a gradient dilution was performed, followed by dilution with the corresponding medium to obtain a solution with 5-fold working concentration.
2. Cells in logarithmic growth phase were adjusted to specific cell densities by dilution with culture medium, and 80 μL of cell suspension was added to a 96-well plate, such that plating densities of cells of BT474, NCI-N87, Ba/F3-EGFR-VIII, Ba/F3 HER2 A775_G776insYVMA and Ba/F3 EGFR D770_N771insSVD were all 3000 cells/well. The cells of Ba/F3-EGFR-VIII, Ba/F3 HER2 A775_G776insYVMA and Ba/F3 EGFR D770_N771insSVD were used directly in the next step (treatment with compound), whereas the BT474 and NCI-N87 needed to be cultured overnight in a 37° C., 5% carbon dioxide gas incubator to adhere to the wall, and then treated with compounds.
3. […] The highest concentration of the assayed compound was 10 μM, 4-fold serial dilution, a total of 9 concentrations, and duplicate wells. A control group without compound was also set up.
4. The cells were cultured for another 72 hours, and then cell viability was detected by CTG assay kit. Signal values were read with a multifunctional plate reader (Perkin Elmer). GraphPad Prism software was used to create a dose-response curve and IC50 was calculated.

[5] = SD, rat, whole blood, IV 3 mg/kg

SMILES: CN1CCC[C@@H]1/C=C/C(=O)Nc1ccc2ncnc(Nc3ccc(OCc4ccccn4)c(Cl)c3)c2c1 [Control compound 1, reference compound]
- Cl_obs ([1]; IV 3 mg/kg): 72.7 ± 7.1 mL/min/kg
- AUC(0-inf) [1, 5]: 693 ± 72 ng·h/mL
- AUC(0-t) [1, 5]: 678 ± 74 ng·h/mL
- Vd [1, 5]: 31 ± 4.6 L/kg
- half-life [1, 5]: 4.91 ± 0.28 h
- oral absorption (in words) ([1]; administrated orally): hardly absorbed

SMILES: COc1c(NC(=O)/C=C/CN(C)C2CCC2)ccc2ncnc(Nc3ccc(OCc4ccccn4)c(Cl)c3)c12 [Example 3, (E)-N-(4-((3-chloro-4-(pyridin-2-ylmethoxy)phenyl)amino)-5-methoxyquinazolin-6-yl)-4-(cyclobutyl(methyl)amino)but-2-enamide]
- IC50 [2]: < 10 nM
- IC50 [3]: < 10 nM
- GI50 [4]: 1 to 5 nM

SMILES: CN1CCC[C@@H]1/C=C/C(=O)Nc1ccc2ncnc(Nc3ccc(OCc4ccccn4)c(Cl)c3)c2c1OCCF [Example 7, (R,E)-N-(4-((3-chloro-4-(pyridin-2-ylmethoxy)phenyl)amino)-5-(2-fluoroethoxy)quinazolin-6-yl)-3-(1-methylpyrrolidin-2-yl)acrylamide]
- IC50 [2]: < 10 nM
- IC50 [3]: < 10 nM
- GI50 [4]: 1 to 5 nM

SMILES: CN1CCC[C@@H]1/C=C/C(=O)Nc1ccc2ncnc(Nc3ccc(OCc4ccccn4)c(Cl)c3)c2c1OCCC(F)(F)F [Example 12, (R,E)-N-(4-((3-chloro-4-(pyridin-2-ylmethoxy)phenyl)amino)-5-(3,3,3-trifluoropropoxy)quinazolin-6-yl)-3-(1-methylpyrrolidin-2-yl)acrylamide]
- IC50 [2]: < 10 nM
- IC50 [3]: < 10 nM
- GI50 [4]: 1 to 5 nM

SMILES: CC(C)COc1c(NC(=O)/C=C/[C@H]2CCCN2C)ccc2ncnc(Nc3ccc(OCc4ccccn4)c(Cl)c3)c12 [Example 14, (R,E)-N-(4-((3-chloro-4-(pyridin-2-ylmethoxy)phenyl)amino)-5-isobutoxyquinazolin-6-yl)-3-(1-methylpyrrolidin-2-yl)acrylamide]
- IC50 [2]: < 10 nM
- IC50 [3]: < 10 nM
- GI50 [4]: 1 to 5 nM

SMILES: CN1CCC[C@@H]1/C=C/C(=O)Nc1ccc2ncnc(Nc3ccc(OCc4ccccn4)c(Cl)c3)c2c1OCCC(C)(C)O [Example 16, (R,E)-N-(4-((3-chloro-4-(pyridin-2-ylmethoxy)phenyl)amino)-5-(3-hydroxy-3-methylbutoxy)quinazolin-6-yl)-3-(1-methylpyrrolidin-2-yl)acrylamide]
- IC50 [2]: < 10 nM
- IC50 [3]: < 10 nM
- GI50 [4]: 1 to 5 nM

SMILES: CN1CCC[C@@H]1/C=C/C(=O)Nc1ccc2ncnc(Nc3ccc(OCc4cccc(F)c4)c(Cl)c3)c2c1OC1CC1 [Example 41, (R,E)-N-(4-((3-chloro-4-((3-fluorobenzyl)oxy)phenyl)amino)-5-cyclopropoxyquinazolin-6-yl)-3-(1-methylpyrrolidone-2-yl)acrylamide]
- IC50 [2]: < 10 nM
- GI50 [4]: 1 to 5 nM

SMILES: COc1c(NC(=O)/C=C/[C@H]2CCCN2C2CCC2)ccc2ncnc(Nc3ccc(OCc4ccccn4)c(Cl)c3)c12 [Example 42, (R,E)-N-(4-((3-chloro-4-(pyridin-2-ylmethoxy)phenyl)amino)-5-methoxyquinazolin-6-yl)-3-(1-cyclobutylpyrrolidin-2-yl)acrylamide]
- IC50 [2]: < 10 nM
- IC50 [3]: 100 to 1000 nM

SMILES: COc1c(NC(=O)/C=C/CN2CCCC2)ccc2ncnc(Nc3ccc(OCc4ccccn4)c(Cl)c3)c12 [Example 43, (E)-N-(4-((3-chloro-4-(pyridin-2-ylmethoxy)phenyl)amino)-5-methoxyquinazolin-6-yl)-4-(pyrrolidine-1-yl)but-2-enamide]
- IC50 [2]: < 10 nM

SMILES: COc1c(NC(=O)/C=C/CN2CCCCC2)ccc2ncnc(Nc3ccc(OCc4ccccn4)c(Cl)c3)c12 [Example 44, (E)-N-(4-((3-chloro-4-(pyridin-2-ylmethoxy)phenyl)amino)-5-methoxyquinazolin-6-yl)-4-(piperidin-1-yl)but-2-enamide]
- IC50 [2]: < 10 nM
